Data on 17 compounds can be found in patent publication US8445522B2, “Substituted 2-(4-pyridyl)benzoxazoles, and compositions thereof, for use in arthropod pest control” (Sumitomo Chemical Company, Limited, priority 2009, dated 2013).

What all share (format): in vivo
One experiment concerns halymorpha halys. The experiment can be described thus: Test Example 7: treated tissue paper with budding soybeans, halymorpha halys mortality. Particulars: 168 h. As for the experimental part: Formulations were prepared by the method described in Formulation Example 1 with respect to each of the active compound 13, the active compound 15, the active compound 18, the active compound 35, the active compound 37, the active compound 44, the active compound 65, the active compound 68 and the active compound 82. The formulations were diluted with water so that the concentration of the active ingredient became 100 ppm and thus test diluents were prepared.
On the other hand, a tissue paper placed in an aluminum cup was irrigated with any one of the above-mentioned diluents (5 ml). The tissue paper was placed in a polyethylene cup together with three budding soybeans. In the polyethylene cup, ten halymorpha halys were released, and the polyethylene cup was lidded by a polyethylene lid. Seven days after the releasing of the insects, the number of survived insects was counted, and the mortality was calculated by the following equation. Mortality(%)=(number of dead insects/number of insects to be tested)×100

Experiment [1] concerns rice brown planthopper. The experiment is described as follows: Test Example 6: plant foot irrigation of rice plant seedling, rice brown planthopper released after seven days. The settings on record: Nilaparvata lugens, 144 h, read-out: Control value. As for the experimental part:
The formulations were diluted with water so that the concentration of the active ingredient became 500 ppm and thus test diluents were prepared. On the other hand, a plant foot of rice plant seedling (two weeks after seeding, second leaf development stage) planted in a plastic cup was irrigated with any one of diluents (5 ml). The seedling was kept in a green house of 25° C. for seven days. Thirty first-instars of rice brown planthopper were released to the seedling, which was kept in the green house at 25 C for six days. Thereafter, the number of survived rice brown planthopper parasitic on rice plant leaves was counted, and the control value was calculated by the following equation. Control value(%)={1−(Cb×Tai)/(Cai×Tb)}×100 wherein each character represents the following meaning: Cb: number of insects in non-treated section before treatment Cai: number of insects in non-treated section during observation Tb: number of insects in treated section before treatment Tai: number of insects in treated section during observation

The test system of experiment [2] is cotton aphids. The experiment can be described thus: Test Example 2: plant foot irrigation of cucumber seedling in urethane mat, cotton aphids inoculated one day after treatment. Particulars: 168 h, read-out: Control value. As for the experimental part: (§1) The formulations were diluted with water so that the concentration of the active ingredient became 500 ppm and thus test diluents were prepared. On the other hand, a plant foot of cucumber seedling (second true leaf development stage) planted in a urethane mat was irrigated with any one of diluents (5 ml). One day after the treatment, the cucumber leaves were inoculated with 30 cotton aphids (all stages). Further seven days after, the number of survived cotton aphids parasitic on the cucumber leaves was counted, and the control value was calculated by the following equation. Control value(%)={1−(Cb×Tai)/(Cai×Tb)}×100 wherein each character represents the following meaning: Cb: number of insects in non-treated section before treatment Cai: number of insects in non-treated section during observation Tb: number of insects in treated section before treatment Tai: number of insects in treated section during observation

Experiment [3] has as its system cotton aphids. The experiment can be described thus: Test Example 3: plant foot irrigation of cucumber seedling in plastic cup, cotton aphids inoculated after seven days. The settings on record: 144 h, read-out: Control value. As for the experimental part:
as §1, with “plastic cup” for “urethane mat”, “The seedling was kept in a green house of 25° C. for seven days. The” for “One day after the treatment, the”, “stages) and kept in the green house for further six days. Thereafter,” for “stages). Further seven days after,”

For the next experiment, the system named is tobacco whitefly. The experiment is described as follows: Test Example 4: test diluent scattered on tomato seedling with hatched tobacco whitefly larvae. Particulars: 168 h, read-out: Control value. As for the experimental part: The formulations were diluted with water so that the concentration of the active ingredient became 500 ppm and thus test diluents were prepared. On the other hand, by releasing tobacco whitefly imagos to a tomato seedling planted in a plastic cup to allow them to lay eggs for about 24 hours. The tomato seedling was kept in a green house for eight days. At the stage in which larvae hatched from the laid eggs, any of the test diluents was scattered at the rate of 10 ml/cup. The tomato seedling was kept in the greenhouse at 25° C. for seven days. The number of survived larvae on tomato leaves was counted, and the control value was calculated by the following equation. Control value(%)={1−(Cb×Tai)/(Cai×Tb)}×100 wherein each character represents the following meaning: Cb: number of insects in non-treated section before treatment Cai: number of insects in non-treated section during observation Tb: number of insects in treated section before treatment Tai: number of insects in treated section during observation

The test system of experiment [4] is cotton aphids (Aphis gossypii Glover). The experiment is described as follows: Test Example 1: test diluent scattered on cucumber seedling inoculated with cotton aphids. Particulars: 120 h, read-out: Control value. The procedure:
The formulations were diluted with water so that the concentration of the active ingredient became 500 ppm and thus test diluents were prepared. On the other hand, a cucumber seedling (second true leaf development stage) planted in a plastic cup was inoculated with about 30 cotton aphids (Aphis gossypii Glover) and allowed to stand for one day. To the seedling, any one of the diluents (10 ml) was scattered. Five days after the scattering, the number of survived cotton aphids parasitic on the cucumber leaves was counted, and the control value was calculated by the following equation. Control value(%)={1−(Cb×Tai)/(Cai×Tb)}×100 wherein each character represents the following meaning: Cb: the number of insects in non-treated section before treatment Cai: the number of insects in non-treated section during observation Tb: the number of insects in treated section before treatment Tai: the number of insects in treated section during observation

The subject of experiment [5] is rice brown planthopper. The experiment can be described thus: Test Example 5: test diluent scattered on rice plant seedling, rice brown planthopper released. The settings on record: Nilaparvata lugens, 144 h, read-out: Control value. The procedure:
The formulations were diluted with water so that the concentration of the active ingredient became 500 ppm and thus test diluents were prepared. On the other hand, to a rice plant seedling (two weeks after seeding, second leaf development stage) planted in a plastic cup, any one of the diluents (10 ml) was scattered. After the drug solution scattered on the rice plant was dried, 30 first-instars of rice brown planthopper were released on the rice plant, which was kept in the green house at 25° C. for six days. Thereafter, the number of rice brown planthopper parasitic on rice plant was counted and the control value was calculated by the following equation. Control value(%)={1−(Cb×Tai)/(Cai×Tb)}×100 wherein each character represents the following meaning: Cb: number of insects in non-treated section before treatment Cai: number of insects in non-treated section during observation Tb: number of insects in treated section before treatment Tai: number of insects in treated section during observation

Where [6] appears, read: 100 ppm, 5 ml on tissue paper with budding soybeans, ten insects, counted seven days after releasing, read-out: Mortality.
[7] abbreviates: 500 ppm, 5 ml plant foot irrigation of rice seedling, first-instars released after seven days, counted six days after.
The mark [8] stands for this setting: 500 ppm, 5 ml plant foot irrigation, plastic cup, aphids inoculated after seven days at 25° C., counted six days after.
Where [9] appears, read: 500 ppm, 5 ml plant foot irrigation, urethane mat, aphids inoculated one day after treatment, counted seven days after.
The mark [10] stands for this setting: 500 ppm, 10 ml/cup scattered on tomato seedling at larvae stage, counted after seven days at 25° C.
Where [11] appears, read: 500 ppm, 10 ml scattered on rice plant seedling, 30 first-instars released, counted after six days at 25° C.

Like-named read-outs stand apart in the source and are kept apart here.

As for `FC(F)(F)C(F)(F)c1ccc2oc(-c3ccncc3)nc2c1` [active compound 65, 5-(pentafluoroethyl)-2-(pyridin-4-yl)-benzoxazole], the mortality – broadly, the share of the test organisms that died – at 100 ppm in the experiment with halymorpha halys (setting [6]) was not below 80%.

For the compound `FC(F)(F)c1ccc2oc(-c3ccncc3Cl)nc2c1` [active compound 18, 2-(3-chloropyridin-4-yl)-5-(trifluoromethyl)benzoxazole], the pest or weed control at 500 ppm in the experiment on rice brown planthopper [1] and with cotton aphids [2] was not below 90% in each case. The compound also returned a mortality at 100 ppm in the experiment with halymorpha halys not below 80%.

Consider `[O-][n+]1ccc(-c2nc3cc(C(F)(F)F)ccc3o2)cc1` [active compound 14, 4-[5-(trifluoromethyl)benzoxazole-2-yl]pyridine N-oxide], for which the pest or weed control at 500 ppm with rice brown planthopper [1] (setting [7]), in the experiment on cotton aphids [3] (setting [8]) and with cotton aphids [2] (setting [9]) was not below 90% each time.

With `Cc1c[n+]([O-])ccc1-c1nc2cc(C(F)(F)F)ccc2o1` [active compound 24, 3-methyl-4-[5-(trifluoromethyl)benzoxazole-2-yl]pyridine N-oxide], the pest or weed control at 500 ppm in the experiment with rice brown planthopper [1] (setting [7]) and with cotton aphids [3] (setting [8]) was not below 90% in each case.

Take `FC(F)(F)c1ccc2oc(-c3ccncc3C(F)(F)F)nc2c1` [active compound 125, 5-trifluoromethyl-2-[3-(trifluoromethyl)pyridin-4-yl]-benzoxazole]: the pest or weed control at 500 ppm with tobacco whitefly (setting [10]) is not below 90%; with rice brown planthopper [1] (setting [7]), not below 90%; in the experiment with cotton aphids [3] (setting [8]) it was not below 90%; in the experiment on cotton aphids [2] (setting [9]), not below 90%; in experiment [4] (500 ppm active ingredient, 10 ml scattered on cucumber seedling, counted five days after scattering) it was not below 90%.

As for `FC(F)(F)c1ccc2oc(-c3ccncc3)nc2c1` [active compound 13, 2-(pyridin-4-yl)-5-(trifluoromethyl)benzoxazole], in the experiment on cotton aphids [3], the pest or weed control at 500 ppm was not below 90%. In the experiment with halymorpha halys, this compound registered a mortality at 100 ppm not below 80%.

As for `[O-][n+]1ccc(-c2nc3cc(C(F)(F)F)ccc3o2)c(I)c1` [active compound 30, 3-iode-4-[5-(trifluoromethyl)benzoxazole-2-yl]pyridine N-oxide], the pest or weed control at 500 ppm with rice brown planthopper [1] (setting [7]), in the experiment on cotton aphids [3] (setting [8]) and in the experiment on cotton aphids [2] (setting [9]) was not below 90% in each case.

With `[O-][n+]1ccc(-c2nc3cc(C(F)(F)F)ccc3o2)c(Cl)c1` [active compound 19, 3-chloro-4-[5-(trifluoromethyl)benzoxazole-2-yl]pyridine N-oxide], the pest or weed control at 500 ppm with cotton aphids [3] (setting [8]) and in the experiment with cotton aphids [2] (setting [9]) was not below 90% in each case.

Consider `CCc1cnccc1-c1nc2cc(C(F)(F)F)ccc2o1` [active compound 35, 2-(3-ethylpyridin-4-yl)-5-(trifluoromethyl)benzoxazole], for which the pest or weed control at 500 ppm (in the experiment on tobacco whitefly; in the experiment with rice brown planthopper [1]; in the experiment on rice brown planthopper [5]; in the experiment with cotton aphids [2]; in experiment [4]) was not below 90% throughout. Moreover, the mortality at 100 ppm with halymorpha halys is not below 80%.

In the case of `FC(F)(F)c1ccc2oc(-c3ccncc3-n3cncn3)nc2c1` [active compound 63, 2-[3-(1,2,4-triazole-1-yl)pyridin-4-yl]-5-(trifluoromethyl)benzoxazole], the pest or weed control at 500 ppm with tobacco whitefly (setting [10]), with cotton aphids [3] (setting [8]) and in the experiment with cotton aphids [2] (setting [9]) was not below 90% in each case.

On to `CC(=O)Nc1cnccc1-c1nc2cc(C(F)(F)F)ccc2o1` [active compound 82, N-[4-(5-trifluoromethylbenzoxazole-2-yl)pyridin-3-yl]acetamide], for which, in the experiment on halymorpha halys (setting [6]), the mortality at 100 ppm was not below 80%.

In the case of `FC(F)(F)c1ccc2nc(-c3ccncc3)oc2c1` [active compound 15, 2-(pyridin-4-yl)-6-(trifluoromethyl)benzoxazole], the mortality at 100 ppm with halymorpha halys (setting [6]) is not below 80%.

On to `Fc1cnccc1-c1nc2cc(C(F)(F)F)ccc2o1` [active compound 25, 2-(3-fluoropyridin-4-yl)-5-(trifluoromethyl)benzoxazole], for which the pest or weed control at 500 ppm with rice brown planthopper [1] (setting [7]) and in the experiment with cotton aphids [3] (setting [8]) was not below 90% in each case.

In the case of `FC(F)(F)C(F)(c1ccc2oc(-c3ccncc3Cl)nc2c1)C(F)(F)F` [active compound 68, 2-(3-chloropyridin-4-yl)-5-(heptafluoroisopropyl)benzoxazole], the pest or weed control at 500 ppm with rice brown planthopper [5] (setting [11]) was not below 90%. In addition, in the experiment on halymorpha halys (setting [6]), the mortality at 100 ppm was not below 80%.

For the compound `FC(F)(F)c1cnc2oc(-c3ccncc3C(F)(F)F)nc2c1` [Active Compound 144, 6-trifluoromethyl-2-[3-(trifluoromethyl)pyridin-4-yl]-oxazolo[5,4-b]pyridine], the pest or weed control at 500 ppm in the experiment with cotton aphids [3] (setting [8]) was not below 90%.

Turning to `CC(C)(C)Sc1cnccc1-c1nc2cc(C(F)(F)F)ccc2o1` [active compound 44, 2-(3-tert-butylthiopyridin-4-yl)-5-(trifluoromethyl)benzoxazole], in the experiment with rice brown planthopper [1], the pest or weed control at 500 ppm is not below 90%. Besides, the mortality at 100 ppm in the experiment on halymorpha halys was not below 80%.

Regarding `FC(F)(F)c1ccc2oc(-c3ccncc3-n3cccn3)nc2c1` [active compound 58, 2-[3-(pyrazole-1-yl)pyridin-4-yl]-5-(trifluoromethyl)benzoxazole], the pest or weed control at 500 ppm with rice brown planthopper [1] (setting [7]), in the experiment on rice brown planthopper [5] (setting [11]), in the experiment on cotton aphids [3] (setting [8]) and in the experiment with cotton aphids [2] (setting [9]) was not below 90% each time.
